In brackets after ≈: the same amount, converted by molar mass. Structures can show the parent of a compound that is named as a salt.
Assays:
[1] = tested on: Propionibacterium acnes NCTC 737; test: anti-anaerobic activity, MIC (procedures of Example 13); assay type: cell-based; details: Cutibacterium acnes, NCTC737, procedures of Example 13 (there mg/L)
B. fragilis NCTC 9344 = test: anti-anaerobic activity, MIC/MBC in 96 well microtitre plates, strain C; assay type: cell-based, Bacteroides fragilis; details: Bacteroides fragilis, NCTC9344, 48 h, strain C; for MBC: 99.9% reduction in viable count after 48 hours, read-out: MBC (Minimum Bactericidal Concentration); for MIC: 48 hours at 37° C., anaerobic chamber, 10^5 cells/ml, read-out: MIC (Minimum Inhibitory Concentration)
[2] = tested on: Clostridium perfringens NCTC 8237; test: microbe, parasite or virus in culture; assay type: cell-based; details: NCTC8237
[3] = tested on: Fusobacterium necrophorum ATCC 11295; test: anti-anaerobic activity, MIC (procedures of Example 13); assay type: cell-based; details: ATCC11295, procedures of Example 13 (there mg/L)
B. fragilis NCTC 9343 = test: anti-anaerobic activity, MIC/MBC in 96 well microtitre plates, strain B; assay type: cell-based, Bacteroides fragilis; details: Bacteroides fragilis, strain B; for MIC: NCTC9343, 48 h, 48 hours at 37° C., anaerobic chamber, 10^5 cells/ml, read-out: MIC (Minimum Inhibitory Concentration); for MBC: NCTC9343, 99.9% reduction in viable count after 48 hours, read-out: MBC (Minimum Bactericidal Concentration)
[4] = tested on: Peptostreptococcus anaerobicus ATCC 27337; test: anti-anaerobic activity, MIC (procedures of Example 13); assay type: cell-based; details: ATCC27337; Peptostreptococcus anaerobicus ATCC 27337; procedures of Example 13 (there mg/L); read-out: MIC
[5] = tested on: Clostridium perfringens NCTC 523; test: microbe, parasite or virus in culture; assay type: cell-based; details: NCTC523
[6] = tested on: Peptococcus prevotti ATCC 9321; test: anti-anaerobic activity, MIC (procedures of Example 13); assay type: cell-based; details: Peptococcus prevotti ATCC 9321; procedures of Example 13 (there mg/L); read-out: MIC
[7] = tested on: B. fragilis MZ-R ATCC 11295; test: anti-anaerobic activity, MIC/MBC in 96 well microtitre plates, strain D; assay type: cell-based, Bacteroides fragilis; details: Bacteroides fragilis, ATCC11295, 48 h; for MBC: 99.9% reduction in viable count after 48 hours, read-out: MBC (Minimum Bactericidal Concentration); for MIC: 48 hours at 37° C., anaerobic chamber, 10^5 cells/ml, read-out: MIC (Minimum Inhibitory Concentration)
Description: The screening panel utilized in the Example consisted of 5 strains of Bacteroides fragilis. All assays were carried out in 96 well microtitre plates. If an isolate was obtained from either a culture collection or clinical source, the isolate was immediately innoculated into Wilkens-Chalgren broth (Oxoid) and incubated at 37° C. in an anaerobic chamber in an atmosphere of 85% nitrogen, 10% carbon dioxide, and 5% hydrogen for 48 hours. At the end of this time, the viable count was about […] broth. A 1 ml aliquot of each culture was placed in an ampoule and quick frozen in acetone-dry ice mixture and stored in liquid nitrogen. When an inoculum was utilized in an assay, one of the ampoules was thawed and diluted with fresh broth to yield a suspension having a count of 5×10^5 organisms/ml. A 100 μl aliquot of the suspension was inoculated into each well of the microtitre plate. A 2 mg sample of the test compound wa dissolved in 0.2 ml of a suitable solvent such as dimethylsulfoxide, polyethylene glycol 200 or methanol. The solution was then diluted with 4.8 ml of water to yield a solution having a concentration of 400 mg/L. Doubling dilutions of this stock were prepared to give a range of concentrations from 1.6-200 mg/L. 100 μl of each concentration were then placed in the wells of the microtitre plate containing the inoculum, to produce a final concentration range of 0.8-100 mg/l. Metronidazole was employed as a positive control and a solvent/water mixture was employed as a negative control. After addition of the test solution the final inoculum level was 10^5 cells/ml. The plates were incubated for 48 hours at 37° C. in the anaerobic chamber. The Minimum Inhibitory Concentration (MIC) was read visually. The MIC is defined as the lowest concentration at which there is no detectable growth. The Minimum Bactericidal Concentration (MBC) was determined by taking a 50 μl aliquot from each well and placing it in fresh medium. […] The strains of Bacteroides fragilis utilized in the above procedure are identified by letter in accordance with the following legend: |D B. fragilis MZ-R ATCC 11295

[8] = tested on: Propionibacterium acnes NCTC 7337; test: anti-anaerobic activity, MIC (procedures of Example 13); assay type: cell-based; details: Cutibacterium acnes, NCTC7337, procedures of Example 13 (there mg/L)
[9] = tested on: Campylobacter fetus ATCC 29428; test: as above; assay type: cell-based; details: ATCC29428, procedures of Example 13 (there mg/L)
B. fragilis NCTC 10581 = test: anti-anaerobic activity, MIC/MBC in 96 well microtitre plates, strain A; assay type: cell-based, Bacteroides fragilis; details: Bacteroides fragilis, NCTC10581, 48 h, strain A; for MBC: 99.9% reduction in viable count after 48 hours, read-out: MBC (Minimum Bactericidal Concentration); for MIC: 48 hours at 37° C., anaerobic chamber, 10^5 cells/ml, read-out: MIC (Minimum Inhibitory Concentration)
B. fragilis WS-1 = test: anti-anaerobic activity, MIC/MBC in 96 well microtitre plates, strain E; assay type: cell-based; details: Bacteroides fragilis, strain E; for MIC: WS1, 48 h, 48 hours at 37° C., anaerobic chamber, 10^5 cells/ml, read-out: MIC (Minimum Inhibitory Concentration); for MBC: WS1, 99.9% reduction in viable count after 48 hours, read-out: MBC (Minimum Bactericidal Concentration)
[10] = tested on: Peptococcus magnus ATCC 29328; test: anti-anaerobic activity, MIC (procedures of Example 13); assay type: cell-based; details: Finegoldia magna, ATCC29328; Peptococcus magnus ATCC 29328; procedures of Example 13 (there mg/L); read-out: MIC

Row | SMILES | MIC [1] [µg/mL] | MBC (B. fragilis NCTC 9344) [µg/mL] | MIC (B. fragilis NCTC 9344) [µg/mL] | MIC [2] [µg/mL] | MIC [3] [µg/mL] | MIC (B. fragilis NCTC 9343) [µg/mL] | MBC (B. fragilis NCTC 9343) [µg/mL] | MIC [4] [µg/mL] | MIC [5] [µg/mL] | MIC [6] [µg/mL] | MBC [7] [µg/mL] | MIC [7] [µg/mL] | MIC [8] [µg/mL] | MIC [9] [µg/mL] | MBC (B. fragilis NCTC 10581) [µg/mL] | MIC (B. fragilis NCTC 10581) [µg/mL] | MIC (B. fragilis WS-1) [µg/mL] | MBC (B. fragilis WS-1) [µg/mL] | MIC [10] [µg/mL]
1 | O=C(c1ccc(Cl)cc1Cl)C(Cl)(Cn1ccnc1)c1ccccc1 (stereo not shown) [Example 4, 2-Chloro-1-(2,4-dichlorophenyl)-3-(imidazol-1-yl)-2-phenylpropan-1-one] | 0.8 (≈ 2.11 µM) | 12.5 (≈ 32.9 µM) | 0.8 (≈ 2.11 µM) | 0.8 (≈ 2.11 µM) | 0.8 (≈ 2.11 µM) | 0.8 (≈ 2.11 µM) | 6.2 (≈ 16.3 µM) | 0.8 (≈ 2.11 µM) | 0.8 (≈ 2.11 µM) | 0.8 (≈ 2.11 µM) | 3.1 (≈ 8.16 µM) | 0.8 (≈ 2.11 µM) | 0.8 (≈ 2.11 µM) | 0.8 (≈ 2.11 µM) | 6.2 (≈ 16.3 µM) | 0.8 (≈ 2.11 µM) | 0.8 (≈ 2.11 µM) | 6.2 (≈ 16.3 µM) | 0.8 (≈ 2.11 µM)
2 | COC(=O)CCc1cn(CC(Cl)(C(=O)c2ccc(Cl)cc2Cl)c2ccccc2)cn1 (stereo not shown) [Example 5, 3-[1-[2-Chloro-3-(2,4-dichlorophenyl)-3-oxo-2-phenylpropyl]-imidazol-4-yl]propanoic acid methyl ester] | – | 1.5 (≈ 3.22 µM) | 1.5 (≈ 3.22 µM) | – | – | 1.5 (≈ 3.22 µM) | 1.5 (≈ 3.22 µM) | – | – | – | 0.8 (≈ 1.72 µM) | 0.8 (≈ 1.72 µM) | – | – | 1.5 (≈ 3.22 µM) | 1.5 (≈ 3.22 µM) | 3.1 (≈ 6.66 µM) | 3.1 (≈ 6.66 µM) | –
3 | O=C(O)/C=C/c1cn(CC(Cl)(C(=O)c2ccc(Cl)cc2Cl)c2ccccc2)cn1 (stereo not shown) [Example 6, E-3-[1-[2-Chloro-3-(2,4-dichlorophenyl)-3-oxo-2-phenylpropyl]imidazol-1-yl]propenoic acid hydrochloride] | – | 0.8 | 0.8 | – | – | 1.5 | 3.1 | – | – | – | 0.8 | 0.8 | – | – | 0.8 | 0.8 | 3.1 | 3.1 | –
4 | N[C@@H](Cc1cn(CC(Cl)(C(=O)c2ccc(Cl)cc2Cl)c2ccccc2)cn1)C(=O)O (stereo partly drawn) [Example 8, 1-[2-Chloro-3-(2,4-dichlorophenyl)-3-oxo-2-phenylpropyl]-L-histidine] | – | 0.8 (≈ 1.71 µM) | 0.8 (≈ 1.71 µM) | – | – | 0.8 (≈ 1.71 µM) | 0.8 (≈ 1.71 µM) | – | – | – | 0.8 (≈ 1.71 µM) | 0.8 (≈ 1.71 µM) | – | – | 0.8 (≈ 1.71 µM) | 0.8 (≈ 1.71 µM) | 3.1 (≈ 6.64 µM) | 3.1 (≈ 6.64 µM) | –

Source: US4761483A, “Chloro-substituted ketone imidazole derivatives” (G. D. Searle & Co., priority 1985, dated 1988)
